row,melting point,Compound
1,197 to 207 °C,CN1C2CCC1CN(C(=O)c1ccc(-c3ccccc3)cc1)C2.O=C(O)/C=C/C(=O)O
2,189 to 193 °C,CC(=O)Nc1cccc(-c2ccc(C(=O)N3CC4CCC(C3)N4C)o2)c1.O=C(O)/C=C/C(=O)O
3,150 to 155 °C,CN1C2CCC1CN(C(=O)c1cc3ccccc3o1)C2.O=C(O)/C=C/C(=O)O
4,108.7 to 109.4 °C,CN1C2CCC1CN(C(=O)c1ccc(-c3cccc(C(F)(F)F)c3)o1)C2.O=C(O)/C=C/C(=O)O

# From patent publication US20070265271A1, “Novel Diazabicyclic Aryl Derivatives as Cholinergy Ligands” (priority 2004, published 2007)
